From ChEMBL document CHEMBL1201862, “PubChem BioAssay data set” (2004)
Several values for one entry are separate records, joined by “and”; a condition that tells them apart may be missing. Equal values may be shown once.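 Following 48 hours of exposure in 96-well plates, responses at five concentrations were used to interpolate endpoints linearly. Abbreviation: GI50, concentration required for 50% inhibition of growth.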 Activity calls are given as the source filed them. Rule as the data show it: active = GI50 up to about 1.1 µM and inactive = higher.

Legend:
Assay in all cases: DTP human tumour cell line panel, 48 h
SR = test system: SR
HT-29 = test system: HT-29
NCI-H23 = test system: NCI-H23
SF-295 = test system: SF-295
DU-145 = test system: DU-145
Hs-578T = test system: Hs-578T
SW-620 = test system: SW-620
NCI-H460 = test system: NCI-H460
K562 = test system: K562
CCRF-CEM = test system: CCRF-CEM
MCF7 = test system: MCF7
MDA-MB-435 = test system: MDA-MB-435
SK-MEL-2 = test system: SK-MEL-2
U-251 = test system: U-251
OVCAR-5 = test system: OVCAR-5
HCC 2998 = test system: HCC 2998
T47D = test system: T47D
CAKI-1 = test system: CAKI-1
MDA-MB-231 = test system: MDA-MB-231

Measured: GI50

CC(=O)Nc1oc(C)c(C)c1S(=O)(=O)c1ccc(Cl)cc1
inactive: SR 51.5 µM | HT-29 49 µM | NCI-H23 43.3 µM | SF-295 44.6 µM | DU-145 85.3 µM | Hs-578T 33.4 µM | SW-620 > 100 µM | NCI-H460 35.7 µM | K562 77.1 µM | CCRF-CEM 79.8 µM | MCF7 19.5 µM | MDA-MB-435 33.5 µM | SK-MEL-2 28.4 µM | U-251 92 µM | OVCAR-5 > 100 µM | HCC 2998 41.3 µM | T47D 52.7 µM

COC(=O)[C@@H]1C[C@H]2[C@H](c3ccccc3Br)[C@@H](OC(C)=O)[C@@H](OCc3ccccc3)ON2O1
inactive: SR > 100 µM | HT-29 > 100 µM | NCI-H23 > 100 µM | SF-295 > 100 µM | DU-145 > 100 µM | SW-620 > 100 µM | NCI-H460 92.3 µM | K562 > 100 µM | CCRF-CEM 49.4 µM | MCF7 > 100 µM | MDA-MB-435 > 100 µM | CAKI-1 > 100 µM | SK-MEL-2 69.2 µM | U-251 > 100 µM | OVCAR-5 > 100 µM | MDA-MB-231 > 100 µM | HCC 2998 51.9 µM | T47D > 100 µM

COc1cccc(-c2c(-c3ccccc3)[nH]c(C)c2C(=O)ONC(=O)c2ccccc2)c1
inactive: SR 2.07 µM | HT-29 10 µM | NCI-H23 11.6 µM | SF-295 2.55 µM | DU-145 2.59 µM | Hs-578T 4.95 µM | SW-620 13.6 µM | NCI-H460 3.19 µM | K562 2.89 µM | CCRF-CEM 3.21 µM | MCF7 8.85 µM | MDA-MB-435 3.34 µM | CAKI-1 3.18 µM | SK-MEL-2 10.4 µM | U-251 3.14 µM | OVCAR-5 9.06 µM | MDA-MB-231 9.55 µM | HCC 2998 14.4 µM

C[C@]12CC[C@H]3[C@@H](CC=C4C[C@@H](O)CC[C@@]43C)[C@@H]1C/C(=C\c1cccnc1)[C@@H]2O
inactive: SR 1.57 µM | HT-29 43.8 µM | NCI-H23 13.1 µM | SF-295 2.55 µM | DU-145 13.5 µM | Hs-578T 6.21 µM | SW-620 89.9 µM | NCI-H460 31.6 µM | CCRF-CEM 23.6 µM | MCF7 6.75 µM | MDA-MB-435 > 100 µM | SK-MEL-2 30.8 µM | U-251 6.27 µM | OVCAR-5 41.4 µM | MDA-MB-231 13.2 µM

CCc1n[nH]c(=O)n1/N=C/c1ccccc1O
inactive: SR > 100 µM | NCI-H23 > 100 µM | SF-295 > 100 µM | DU-145 > 100 µM | Hs-578T 28 µM | SW-620 > 100 µM | K562 > 100 µM | CCRF-CEM > 100 µM | MCF7 > 100 µM | MDA-MB-435 > 100 µM | SK-MEL-2 > 100 µM | U-251 > 100 µM | OVCAR-5 > 100 µM | MDA-MB-231 > 100 µM | HCC 2998 > 100 µM

COc1cc(-c2c(C(C)=O)c(-c3ccccc3)n(C3OC(COC(C)=O)C(OC(C)=O)C(OC(C)=O)C3OC(C)=O)c(=S)c2C#N)ccc1O (stereo unspecified)
inactive: SR > 100 µM | HT-29 76.6 µM and 76.9 µM | NCI-H23 72.8 µM | SF-295 > 100 µM | DU-145 55.3 µM and 58.1 µM | Hs-578T 70.6 µM | SW-620 > 100 µM | NCI-H460 75.5 µM | K562 > 100 µM | CCRF-CEM 58.3 µM | MCF7 > 100 µM and 81.5 µM | MDA-MB-435 57.1 µM and 35.4 µM | CAKI-1 > 100 µM | U-251 > 100 µM | OVCAR-5 > 100 µM

COc1cc(C2C(Cl)C(=O)N2c2c(C)n(C)n(-c3ccccc3)c2=O)ccc1O (stereo unspecified)
inactive: SR 12 µM | HT-29 17.7 µM | NCI-H23 14.7 µM | SF-295 22.2 µM | DU-145 29.7 µM | SW-620 15 µM | NCI-H460 23.6 µM | K562 26.6 µM | CCRF-CEM 22.7 µM | MCF7 13.2 µM | MDA-MB-435 16.4 µM | CAKI-1 33.6 µM | SK-MEL-2 20.3 µM | U-251 18 µM | OVCAR-5 21.5 µM | MDA-MB-231 22.1 µM | T47D 44.3 µM

Cc1nc2c(n1CC(C)(C)C)C(=O)c1ccccc1C2=O
inactive: SR 97.7 µM | HT-29 98.9 µM | NCI-H23 > 100 µM | SF-295 > 100 µM | SW-620 > 100 µM | NCI-H460 58.6 µM | K562 56 µM | CCRF-CEM > 100 µM | SK-MEL-2 > 100 µM | U-251 > 100 µM | HCC 2998 > 100 µM

Cc1ccc(/C=C/C(=O)c2sc(-c3cccnc3)nc2C)cc1
inactive: HT-29 > 100 µM | NCI-H23 > 100 µM | SF-295 > 100 µM | SW-620 > 100 µM | NCI-H460 > 100 µM | K562 > 100 µM | CCRF-CEM > 100 µM | CAKI-1 > 100 µM | SK-MEL-2 > 100 µM | U-251 > 100 µM | OVCAR-5 > 100 µM | HCC 2998 > 100 µM

CC1CC/C(=C\c2ccc(F)cc2)C2=C1C(c1ccc(F)cc1)n1c(s/c(=C/c3cccc(Br)c3)c1=O)=N2 (stereo unspecified)
inactive: SR > 100 µM | HT-29 > 100 µM | DU-145 > 100 µM | Hs-578T > 100 µM | SW-620 > 100 µM | K562 > 100 µM | CCRF-CEM > 100 µM | MCF7 > 100 µM | MDA-MB-435 > 100 µM | CAKI-1 > 100 µM | SK-MEL-2 > 100 µM | U-251 > 100 µM | OVCAR-5 > 100 µM | MDA-MB-231 > 100 µM

O=[N+]([O-])c1ccc2sc(/C=N/c3ccc(O)cc3)cc2c1
inactive: SR 29.1 µM | HT-29 46.9 µM | NCI-H23 27.9 µM | SF-295 42.3 µM | DU-145 32.8 µM | Hs-578T 18.9 µM | SW-620 17 µM | NCI-H460 46 µM | K562 18.1 µM | CCRF-CEM 15.3 µM | MCF7 20.1 µM | MDA-MB-435 18.2 µM | CAKI-1 20.6 µM | SK-MEL-2 22 µM | U-251 19.8 µM | OVCAR-5 62.2 µM | MDA-MB-231 17.8 µM | HCC 2998 21.8 µM

Cc1ccc(S(=O)(=O)CC2(Br)CCc3ccccc3C2=O)cc1 (stereo unspecified)
inactive: SR 1.38 µM | HT-29 20.8 µM | NCI-H23 33.6 µM | SF-295 77.8 µM | DU-145 74.8 µM | Hs-578T 32.6 µM | SW-620 18 µM | NCI-H460 > 100 µM | K562 5.89 µM | MCF7 24.5 µM | MDA-MB-435 16.5 µM | CAKI-1 24.5 µM | SK-MEL-2 21.4 µM | U-251 21.4 µM | OVCAR-5 51.1 µM | MDA-MB-231 28 µM
